ChEMBL document CHEMBL1828504, “Synthesis and SAR optimization of diketo acid pharmacophore for HCV NS5B polymerase inhibition” (Eur J Med Chem, 2011)

Experiment: Inhibition of recombinant HCV NS5B Cdelta21 polymerase assessed as [alpha-32P]UMP incorporation into RNA after 1 hr by liquid scintillation counting
Design: species or system Hepacivirus hominis

Point of comparison: `O=C(O)/C(O)=C/C(=O)c1ccccc1F`, IC50 14.9 µM. Against it:
- Cc1ccc(C(=O)/C=C(\O)C(=O)O)s1 — 3.7-fold higher, 55.5 µM
- O=C(O)/C(O)=C/C(=O)c1cc2ccccc2o1 — 2-fold higher, 29.6 µM
- O=C(O)/C(O)=C/C(=O)c1ccc(I)s1 — 4.3-fold higher, 63.9 µM
- O=C(O)/C(O)=C/C(=O)c1ccc[nH]1 — within 1.5-fold, 21.7 µM
- O=C(O)/C(O)=C/C(=O)c1c(F)cccc1F — within 1.5-fold, 17 µM
- Cc1ccccc1C(=O)/C=C(\O)C(=O)O — 2.2-fold lower, 6.9 µM
- O=C(O)/C(O)=C/C(=O)c1nccs1 — 2-fold higher, 30.4 µM
- O=C(O)/C(O)=C/C(=O)c1ccc(-c2ccccc2)cc1 — within 1.5-fold, 20.9 µM
- O=C(O)/C(O)=C/C(=O)c1ccc(F)cc1F — 6.2-fold lower, 2.4 µM
- O=C(O)/C(O)=C/C(=O)c1n[nH]c2ccccc12 — 1.7-fold higher, 24.7 µM
- O=C(O)/C(O)=C/C(=O)c1cc2ccccc2s1 — 2.5-fold higher, 37.7 µM
- Cc1csc(C(=O)/C=C(\O)C(=O)O)c1 — 2.2-fold higher, 32.7 µM
- O=C(O)/C(O)=C/C(=O)c1ccco1 — within 1.5-fold, 21.8 µM
- O=C(O)/C(O)=C/C(=O)c1cccc(-c2nnn[nH]2)c1 — 2.9-fold lower, 5.2 µM
- CCOC(=O)/C(O)=C/C(=O)c1ccccc1F — within 1.5-fold, 12.4 µM
- O=C(O)/C(O)=C/C(=O)c1ccc(Br)s1 — 2.1-fold higher, 31.4 µM
- O=C(O)/C(O)=C/C(=O)c1cc2cc(Br)ccc2o1 — 1.8-fold lower, 8.2 µM
- O=C(O)/C(O)=C/C(=O)c1cccs1 — within 1.5-fold, 17.3 µM
- O=C(O)/C(O)=C/C(=O)c1ccc(Cl)cc1Cl — 3.3-fold higher, 49.7 µM
- CCOC(=O)/C(O)=C/C(=O)c1n[nH]c2ccccc12 — 2.6-fold higher, 38.4 µM
- O=C(O)/C(O)=C/C(=O)c1ccc(Cl)s1 — 1.7-fold higher, 25.5 µM
- Cc1ccsc1C(=O)/C=C(\O)C(=O)O — 2-fold lower, 7.5 µM
- N#Cc1cccc(C(=O)/C=C(\O)C(=O)O)c1 — 2.7-fold higher, 39.7 µM
- O=C(O)/C(O)=C/C(=O)c1ccccc1[N+](=O)[O-] — within 1.5-fold, 11.3 µM
- O=C(O)/C(O)=C/C(=O)c1cccc(F)c1 — 3.3-fold higher, 49.9 µM
